Read-outs that look alike come from different tables or passages of the source.
Columns and labels:
[1] = tested on: colon cancer and pancreatic cancer cell lines; experiment: Cytotoxicity test on various cancer cells, summary by KRAS codon 12 status; format: cell-based; settings: Homo sapiens
Experimental: (§1) Using colon cancer and pancreatic cancer cell lines, the cells were seeded in each well of a 96-well microplate, resulting in a cell density of 3000 to 5000 cells/well, and they were then cultured overnight. On the following day, the cells of each type were treated with KR12 recognizing a codon 12 mutation in concentrations of 1 nM, 10 nM, 30 nM, 100 nM, 300 nM, and 1 μM for 48 hours. Thereafter, a WST-8 reagent was added to each well, using cell counting kit-8, and the obtained mixture was then reacted for 2 hours. After that, the number of cells was counted at a wavelength of 450 nm according to a colorimetric analysis method using a microplate reader. The method of counting the number of cells comprises: 1) obtaining the mean value of the medium alone, 2) subtracting the mean value of the medium from each well, 3) obtaining the mean value of DMSO, 4) dividing the medium-subtracted value by the mean value of DMSO and then multiplying by 100, 5) obtaining the mean value of each treatment group and a standard deviation, and then preparing a graph. The calculation formula of IC50 is the following: IC50=10 (LOG (A/B)×(50−C)/(D−C)+LOG (B)), wherein A: a higher concentration of two concentrations sandwiching 50%, B: a lower concentration of two concentrations sandwiching 50%, C: inhibitory percentage at B, and D: inhibitory percentage at A. […]

[2] = Mass spectrometry of mouse urine and mouse bile for KR12 and decomposed product; format: in vivo
Experimental: The FITC-labeled KR12 (10 nmol) was administered into the vein of nude mice, into which SW480 cells had been transplanted, and thereafter, their fluorescent image was observed over time. […] Thereafter, twenty-four hours after the administration, the mice were dissected, and incorporation of FITC into various organs was observed. […] Furthermore, localization of KR12 in the cells of tumor, liver, and kidney was observed under a fluorescence microscope. […] The presence of absence of HR12 and a decomposed product thereof in mouse urine and mouse bile was examined by mass spectrometry. […] In the case of tumor cells, lipids are required for the synthesis of a cell membrane or the like, together with cell division, and thus, in general, incorporation of lipids is increased. In addition, excretion via the lymphatics is undeveloped. […] Such accumulation of KR12 in the liver and the kidney is observed even in normal cells. However, since KR12 cannot retain in the cells, it is discharged into bile and/or urine, and is then excreted from these organs. That is, KR12 has excellent effects that it is promptly discharged from normal cells and retains in cancer cells for a long period of time.

LS180 cells = experiment: Cytotoxicity test, WST-8 (cell counting kit-8), 48 hours; format: cell-based, human; settings: Homo sapiens
Experimental: Using LS180 colon cell line, the cells were seeded in each well of a 96-well microplate, resulting in a cell density of 3000 to 5000 cells/well, and they were then cultured overnight. On the following day, KR12 recognizing a codon 12 mutation, WT recognizing wild-type KRAS, and C12-Dp having the same structure as that of KR12, to which an alkylating agent had not been added, were each added to the cultured cells in concentrations of 1 nM, 10 nM, 30 nM, 100 nM, 300 nM, and 1 μM, and were then treated for 48 hours. Thereafter, a WST-8 reagent was added to each well, using cell counting kit-8 (DOJINDO), and the obtained mixture was then reacted for 2 hours. After that, the number of cells was counted at a wavelength of 450 nm according to a colorimetric analysis method using a microplate reader. The method of counting the number of cells comprises: 1) obtaining the mean value of the medium alone, 2) subtracting the mean value of the medium from each well, 3) obtaining the mean value of DMSO, 4) dividing the medium-subtracted value by the mean value of DMSO and then multiplying by 100, 5) obtaining the mean value of each treatment group and a standard deviation, and then preparing a graph. The calculation formula of IC50 is the following: IC50=10 (LOG (A/B)×(50−C)/(D−C)+LOG (B)), wherein A: a higher concentration of two concentrations sandwiching 50%, B: a lower concentration of two concentrations sandwiching 50%, C: inhibitory percentage at B, and D: inhibitory percentage at A.
as §1, with “graph.” for “graph. The calculation formula of IC50 is the following: IC50=10 (LOG (A/B)×(50−C)/(D−C)+LOG (B)), wherein A: a higher concentration of two concentrations sandwiching 50%, B: a lower concentration of two concentrations sandwiching 50%, C: inhibitory percentage at B, and D: inhibitory percentage at A.”

HT29 (KRAS-WT) = experiment: Suppression of tumor growth in nude mice, HT29 transplanted; format: in vivo; settings: nude mice with HT29 cells; 3.4 mmol KR12 via the caudal vein; FIG. 14A
Experimental: The below-mentioned 3 types of PBS solutions containing each type of cells were subcutaneously transplanted into the femurs of nude mice (i.e., HT29 into 7 mice, LS180 into 7 mice, and SW480 into 6 mice), and thereafter, at a time point in which a tumor adhered to the living body of each mouse and the tumor volume became approximately 100 mm^3, a drug was prepared with a composition of 3.4 mmol KR12 (1.36 mM KR12 dissolved in 2.5 μL of DMSO and 197.5 μL of PBS), or of a DMSO/PBS control (2.5 μL of DMSO and 197.5 μL of PBS). The prepared drug was subjected to sonication for 10 minutes, and 200 μL of the drug was administered to each mouse via the caudal vein thereof. The body weight and the tumor size were measured once three days, and the size of the tumor was measured by the method of 0.52×L×W×D(1/6×π×L×W×D).
HT29 (KRAS-WT): (transplanted in an amount of 2×10^6 cells/100 μl PBS into the subcutis of each mouse; a wild-type KRAS codon 12 cell line having no codon 12 mutations)

SMILES: CC(=O)Nc1cn(C)c(C(=O)Nc2cc(C(=O)NCCC(=O)Nc3cn(C)c(C(=O)Nc4cn(C)c(C(=O)Nc5cc(C(=O)Nc6cn(C)c(C(=O)NCCCC(=O)Nc7cc(C(=O)Nc8cn(C)c(C(=O)NCCC(=O)Nc9cc(C(=O)Nc%10cc(C(=O)Nc%11ccc%12[nH]c(C(=O)N%13CC(CCl)c%14c%13cc(O)c%13ccccc%14%13)cc%12c%11)n(C)c%10)n(C)c9)n8)n(C)c7)n6)n(C)c5)n4)n3)n(C)c2)n1 (stereo not drawn) [KR12]
- IC50 ([1]; SW1463, DLD-1, HT-29 and Caco-2, cell lines which do not have a codon 12 mutation recognized by KR12): ≥ 100 nM
- IC50 ([1]; cell lines having a codon 12 mutation, which is recognized by KR12): ≤ 100 nM
- metabolic degradation of excreted compound [2]: discharged in a state in which it was not subjected to metabolic degradation
- IC50 (LS180 cells; LS180, KRAS G12D Hetero, Table 1, read-out: KR12 IC50): 42 nM
- IC50 (LS180 cells; LS180 cells, WST-8, FIG. 8, read-out: IC50): 53 nM
- tumor growth (HT29 (KRAS-WT)): could not be suppressed

Source: patent US11185593B2, “Alkylating agent for alkylating target with driver oncogene mutation” (Chiba Prefecture, priority 2013, dated 2021)
